# Read-outs that look alike come from different tables or passages of the source. Where a SMILES comes first, the peptide text is derived from it. Where no end group is shown, it is not given here.
# Experiments:
# [1] = target: T1, angiotensin-converting enzyme (ACE) (Oryctolagus cuniculus, UniProt P12822); settings: read-out: ACE inhibitory IC50, cited from earlier work
# T1 sequence (P12822 34-1310): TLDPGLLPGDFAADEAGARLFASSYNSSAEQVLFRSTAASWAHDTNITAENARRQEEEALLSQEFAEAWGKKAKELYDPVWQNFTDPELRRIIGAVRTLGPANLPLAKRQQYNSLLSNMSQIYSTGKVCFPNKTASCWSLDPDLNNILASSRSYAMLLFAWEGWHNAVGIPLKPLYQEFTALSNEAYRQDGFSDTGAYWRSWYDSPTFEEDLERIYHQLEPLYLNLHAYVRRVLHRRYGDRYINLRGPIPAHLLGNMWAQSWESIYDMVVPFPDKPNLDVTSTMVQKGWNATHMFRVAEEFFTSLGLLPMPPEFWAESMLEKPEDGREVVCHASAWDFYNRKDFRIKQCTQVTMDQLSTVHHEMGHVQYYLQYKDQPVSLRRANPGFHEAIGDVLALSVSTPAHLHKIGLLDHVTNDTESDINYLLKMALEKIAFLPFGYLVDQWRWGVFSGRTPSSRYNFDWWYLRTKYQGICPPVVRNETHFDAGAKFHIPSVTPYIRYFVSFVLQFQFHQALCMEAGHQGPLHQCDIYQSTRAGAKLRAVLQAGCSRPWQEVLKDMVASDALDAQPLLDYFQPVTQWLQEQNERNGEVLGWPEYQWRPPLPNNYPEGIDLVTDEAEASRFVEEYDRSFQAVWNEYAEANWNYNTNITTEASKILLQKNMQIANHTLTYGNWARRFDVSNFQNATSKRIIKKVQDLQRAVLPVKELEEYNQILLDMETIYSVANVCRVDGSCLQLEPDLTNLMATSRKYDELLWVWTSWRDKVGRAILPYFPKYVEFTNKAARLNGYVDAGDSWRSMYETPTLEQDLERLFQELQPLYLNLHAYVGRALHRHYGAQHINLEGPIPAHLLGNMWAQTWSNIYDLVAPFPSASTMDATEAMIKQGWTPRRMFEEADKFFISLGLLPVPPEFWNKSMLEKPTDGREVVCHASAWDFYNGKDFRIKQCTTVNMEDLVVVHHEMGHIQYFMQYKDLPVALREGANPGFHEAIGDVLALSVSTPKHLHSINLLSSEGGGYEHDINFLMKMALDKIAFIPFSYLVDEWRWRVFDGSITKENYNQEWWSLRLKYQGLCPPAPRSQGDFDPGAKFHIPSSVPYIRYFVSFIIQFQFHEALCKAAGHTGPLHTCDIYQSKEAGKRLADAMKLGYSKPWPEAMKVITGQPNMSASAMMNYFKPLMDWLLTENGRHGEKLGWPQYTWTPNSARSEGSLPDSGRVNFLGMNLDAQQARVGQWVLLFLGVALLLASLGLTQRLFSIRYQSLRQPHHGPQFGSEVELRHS
# [2] = MBPDB; cited from earlier work
# [3] = target: T1, angiotensin-converting enzyme (ACE); assay: ACE-inhibitory activity, fluorescence assay with Abz-Gly-Phe(NO2)-Pro; assay type: biochemical
# Method: ACE (1 U/mL) was diluted (0.04 U/mL) in 150 mM Tris buffer containing 0.1 μM ZnCl2 (pH 8.3). Forty microliters of sample (or MilliQ water for blank and control) were added to a black multi-well plate (Porvair, Leatherhead, UK). Then, 40 μL of ACE were added, and the reaction started after the addition of 160 μL of the substrate. The plate was incubated at 37 °C for 30 min, and the fluorescence was measured in a FLUOstar OPTIMA plate reader (BMG Labtechnologies GmbH, Offenburg, Germany) with 320 nm excitation and 420 nm emission filters.
# [4] = Oxygen radical absorbance capacity (ORAC)-FL assay; set-up: key to Antioxidant Activity ORAC, symbol: **: Antioxidant activity not detected at the highest peptide concentration analyzed (0.20 µmol); settings: for Antioxidant Activity ORAC: mean ± SD
# Method: An oxygen radical absorbance capacity (ORAC)-FL assay was used based on the protocol previously optimized. The reaction was performed at 37 °C in 75 mM phosphate buffer (pH 7.4). The final assay mixture volume was 200 µL, containing 70 nM FL, 12 mM AAPH, and antioxidant [(Trolox, 1–8 µM) or sample (at different concentrations)]. Fluorescence was measured during 137 min in a FLUOstar OPTIMA plate reader (BMG Labtech) with 485 nm excitation and 520 nm emission filters. The equipment was controlled by the FLUOstar Control ver. 1.32 R2 software for fluorescence measurement. Samples were analyzed in triplicate. The final ORAC-FL value was expressed as μmol Trolox equivalents (TE) per μmol peptide.
# ABTS assay (TEAC) = settings: mean ± SD
# Method: Antioxidant activity was measured using a previously optimized method with some modifications. A mixture of 7 mM ABTS stock solution and 2.45 mM potassium persulfate was kept in the dark at room temperature for 12-16 h to form the ABTS radical cation (ABTS^•+). The ABTS^•+ solution was diluted in 5 mM of phosphate buffer solution (PBS) (pH 7.4) to an absorbance of 0.70 ± 0.02 at 734 nm at 30 °C. Two mL of diluted ABTS^•+ solution were mixed with 20 μL of sample or Trolox (0–0.015 μmol), and the absorbance was recorded at 734 nm after 10 min incubation at 30 °C. The Trolox equivalent antioxidant capacity (TEAC) value was expressed as μmol TE per μmol peptide. Each sample was analyzed in triplicate.
# Caco-2 cells [5] = assay: Cell viability (MTT), direct effects, Caco-2; assay type: cell-based, human; settings: Caco-2, 1–100 µM, 24 h
# Method: (§1) Cell viability was determined using the MTT assay. […] Samples were analyzed in triplicate.
# RAW264.7 cells = assay: Cell viability (MTT), direct effects, RAW264.7; assay type: cell-based, mouse; settings: RAW264.7, 1–100 µM, 24 h
# Method: as §1
# Caco-2 cells [6] = assay: Intracellular ROS (DCFH), t-BOOH-stressed Caco-2; assay type: cell-based, human; settings: stressed Caco-2 (1 mM t-BOOH)
# Method: The intracellular ROS levels were detected using the ROS-sensitive fluorescent dye, DCFH, as previously described. Caco-2 cells were plated in 48-well plates (density of 4.75 × 10^4 cells/well) and RAW264.7 cells in 24-well plates (density of 2.0 × 10^5 cells/well) and incubated for 7 days and 14 h, respectively. After this time, cells were treated with peptides as previously described for 24 h. Then, DCFH was dissolved in HBSS and added to cells at a final concentration of 5 µM solution. Cells were incubated for 30 min at 37 °C. The probe was removed, and cells were incubated with PBS (direct effects) or t-BOOH (protective effects) for 60 min, measuring the fluorescence after 60 min in a FLUOstar OPTIMA plate reader (BMG Labtech) with 485 nm excitation and 520 nm emission filters. The results were expressed as percentage of the control, which was considered as 100%. The assay was run in triplicate.
# [7] = mean ± SD, read-out: ACE Inhibitory Activity (IC50-µM)
# [8] = highest peptide concentration analyzed 1000 µM, read-out: ACE Inhibitory Activity (IC50-µM), symbol
molecule,measurement,setting,value
CC(C)C[C@H](NC(=O)[C@@H](N)Cc1ccc(O)cc1)C(=O)NCC(=O)N[C@@H](Cc1ccc(O)cc1)C(=O)O [YLGY] (H-YLGY-OH; N-terminus and C-terminus assumed),IC50,[1]; database value,41.9 µM
same,ORAC,[2],ORAC = 1.46 µmol TE/µmol peptide **
same,IC50,[3]; [7],9.87 ± 0.31 µM
same,Antioxidant Activity ORAC,[4],2.96 ± 0.20 µmol TE/µmol peptide
same,Antioxidant Activity TEAC,ABTS assay (TEAC),2.14 ± 0.11 µmol TE/µmol peptide
HLPLP [reference compound],IC50,[1]; literature value,41 µM
YGFLP [YGFLP],IC50,[1]; literature value,260 µM
same,IC50,[3]; [7],272.39 ± 0.25 µM
RYLGYLE [RYLGYLE],"Cell viability, direct effect",Caco-2 cells [5],did not evoke changes in cell viability
same,IC50,[3]; [8],> 1000 µM
same,"Cell viability, direct effect",RAW264.7 cells,did not evoke changes in cell viability
CC(C)C[C@H](NC(=O)[C@@H](N)CC(C)C)C(=O)N[C@@H](Cc1ccccc1)C(=O)O [LLF] (H-Leu-Leu-Phe-OH; N-terminus and C-terminus assumed),IC50,[1]; BIOPEP-UWM,79.8 µM
same,IC50,[3]; [7],94.8 ± 2.97 µM
same,"Antioxidant Activity ORAC, symbol",[4]; highest peptide concentration analyzed 0.20 µmol,**
CC(C)C[C@H](NC(=O)[C@H](Cc1ccc(O)cc1)NC(=O)[C@@H](N)CCCNC(=N)N)C(=O)O [RYL] (H-Arg-Tyr-Leu-OH; N-terminus and C-terminus assumed),IC50,[1]; BIOPEP-UWM,3.31 µM
same,IC50,[1]; database value,107 µM
same,ORAC,[2],ORAC = 1.75 µmol TE/µmol peptide **
same,IC50,[3]; [8],> 1000 µM
same,Antioxidant Activity ORAC,[4],1.72 ± 0.14 µmol TE/µmol peptide
same,Antioxidant Activity TEAC,ABTS assay (TEAC),1.90 ± 0.03 µmol TE/µmol peptide
IPP [reference compound],IC50,[1]; literature value,5 µM
YPVEPF [YPVEPF],IC50,[3]; [8],> 1000 µM
VPP [reference compound],IC50,[1]; literature value,9 µM
YPFPGPIP,IC50,[3]; [7],224 ± 43.9 µM
YLGYLE [YLGYLE],"Cell viability, direct effect",Caco-2 cells [5],did not evoke changes in cell viability
same,ROS levels (% control),Caco-2 cells [6]; 1 µM peptide,175.06 ± 11.13%
same,ROS levels (% control),Caco-2 cells [6]; 10 µM peptide,174.44 ± 11.60%
same,IC50,[3]; [7],85.8 ± 4.66 µM
same,"Cell viability, direct effect",RAW264.7 cells,did not evoke changes in cell viability
N[C@@H](Cc1ccc(O)cc1)C(=O)N1CCC[C@H]1C(=O)N[C@@H](Cc1c[nH]c2ccccc12)C(=O)O [YPW] (H-Tyr-Pro-Trp-OH; N-terminus and C-terminus assumed),IC50,[3]; [8],> 1000 µM
YFYPEL [YFYPEL],"Cell viability, direct effect",Caco-2 cells [5],did not evoke changes in cell viability
same,ROS levels (% control),Caco-2 cells [6]; 1 µM peptide,168.88 ± 17.80%
same,IC50,[3]; [7],8.82 ± 0.58 µM
same,"Cell viability, direct effect",RAW264.7 cells,did not evoke changes in cell viability
CC(C)C[C@H](NC(=O)[C@H](Cc1ccc(O)cc1)NC(=O)[C@@H](N)CCCNC(=N)N)C(=O)NCC(=O)O [RYLG] (H-RYLG-OH; N-terminus and C-terminus assumed),IC50,[1]; database value,225 µM
same,ORAC,[2],ORAC = 1.67 µmol TE/µmol peptide **
same,IC50,[3]; [8],> 1000 µM
same,Antioxidant Activity ORAC,[4],1.70 ± 0.11 µmol TE/µmol peptide
same,Antioxidant Activity TEAC,ABTS assay (TEAC),2.91 ± 0.21 µmol TE/µmol peptide
YPFPGPI [YPFPGPI],IC50,[1]; MBPDB,500 µM
same,IC50,[3]; [7],686 ± 103 µM
CC(C)C[C@H](NC(=O)[C@@H](N)Cc1ccc(O)cc1)C(=O)NCC(=O)O [YLG] (H-Tyr-Leu-Gly-OH; N-terminus and C-terminus assumed),ORAC,[2],ORAC = 1.38 µmol TE/µmol peptide **
same,IC50,[3]; [8],> 1000 µM
same,Antioxidant Activity ORAC,[4],0.93 ± 0.08 µmol TE/µmol peptide
same,Antioxidant Activity TEAC,ABTS assay (TEAC),1.40 ± 0.04 µmol TE/µmol peptide
YPFVEP [YPFVEP],IC50,[3]; [7],7.48 ± 0.03 µM
YPFVE [YPFVE],IC50,[3]; [8],> 1000 µM
FYPEL [FYPEL],IC50,[1]; database value,80.6 µM
same,IC50,[3]; [7],62 ± 6.27 µM
CC(C)C[C@H](N)C(=O)NCC(=O)N[C@@H](Cc1ccc(O)cc1)C(=O)O [LGY] (H-Leu-Gly-Tyr-OH; N-terminus and C-terminus assumed),IC50,[1]; database value,21.5 µM
same,ORAC,[2],ORAC = 2.31 µmol TE/µmol peptide **
same,IC50,[3]; [7],26.1 ± 0.83 µM
same,Antioxidant Activity ORAC,[4],2.00 ± 0.09 µmol TE/µmol peptide
same,Antioxidant Activity TEAC,ABTS assay (TEAC),1.54 ± 0.01 µmol TE/µmol peptide
AYFYPE [AYFYPE],IC50,[1]; BIOPEP-UWM and MBPDB,106 µM
same,IC50,[1]; database value,261 µM
same,IC50,[3]; [7],774 ± 38.2 µM
RYLGY [RYLGY],IC50,[3]; [7],3.08 ± 0.11 µM
CC(C)C[C@H](NC(=O)[C@H](Cc1ccccc1)NC(=O)CNC(=O)[C@@H](N)Cc1ccc(O)cc1)C(=O)O [YGFL],IC50,[3]; [7],292.5 ± 0.83 µM
same,Antioxidant Activity ORAC,[4],1.42 ± 0.04 µmol TE/µmol peptide
same,Antioxidant Activity TEAC,ABTS assay (TEAC),2.12 ± 0.03 µmol TE/µmol peptide
